Columns and labels:
Type in all cases: cell-based
Parameters in all cases: dose or concentration left out as unconfirmed
[1] = tested on: prostate tumor cell line DU-145; experiment: Viability assay, Trypan blue exclusion, prostate tumor cell line DU-145; details: for percent cell death (% Death), DU145: 96 hours; for cytotoxicity: Homo sapiens, DU-145, 96 hours, read-out: percent cell death (% Death), DU145
Method: (§1) The effect of the sulfones on normal fibroblasts and on tumor cells of prostate, colon, lung and breast origin was examined utilizing the following cell lines: prostate tumor cell line DU-145; colorectal carcinoma cell line DLD-1; non-small cell lung carcinoma cell line H157; and breast tumor cell line BT-20. BT-20 is an estrogen-unresponsive cell line. NIH/3T3 and HFL are normal murine and human fibroblasts, respectively. BT-20, DLD-1 and H157 were grown in Dulbecco's modified Eagle's medium (DMEM) containing 10% fetal bovine serum supplemented with penicillin and streptomycin. DU145 was cultured in RPMI with 10% fetal bovine serum containing penicillin and streptomycin. NIH3T3 and HFL cells were grown in DMEM containing 10% calf serum supplemented with penicillin and streptomycin. All cell cultures were maintained at 37° C. in a humidified atmosphere of 5% CO2.
(§2) Cells were treated with test compound […] concentration and cell viability was determined after 96 hours by the Trypan blue exclusion method. Activity for each compound is reported as a range of cell induced death (% Death) with the lowest activity in the range of 5-10%.

[2] = tested on: breast tumor cell line BT-20; experiment: Viability assay, Trypan blue exclusion, breast tumor cell line BT-20; details: for percent cell death (% Death), BT20: 96 hours; for cytotoxicity: Homo sapiens, BT-20, 96 hours, read-out: percent cell death (% Death), BT20
Method: as §1, §2

[3] = tested on: colorectal carcinoma cell line DLD-1; experiment: Viability assay, Trypan blue exclusion, colorectal carcinoma cell line DLD-1; details: for percent cell death (% Death), DLD-1: 96 hours; for cytotoxicity: Homo sapiens, DLD-1, 96 hours, read-out: percent cell death (% Death), DLD-1
Method: as §1, §2

[4] = tested on: non-small cell lung carcinoma cell line H157; experiment: Viability assay, Trypan blue exclusion, non-small cell lung carcinoma cell line H157; details: for percent cell death (% Death), H157: 96 hours; for cytotoxicity: Homo sapiens, NCI-H157, 96 hours, read-out: percent cell death (% Death), H157
Method: as §1, §2

SMILES: COc1ccc(CS(=O)(=O)/C=C/C2=CS(=O)(=O)C=C2)cc1 [Example 36, (E)-3-Thiophene-1,1-dioxoethenyl-4-methoxybenzylsulfone]
- percent cell death (% Death), DU145 [1]: + ((+)=5-10%)
- percent cell death (% Death), BT20 [2]: + ((+)=5-10%)
- percent cell death (% Death), DLD-1 [3]: + ((+)=5-10%)
- percent cell death (% Death), H157 [4]: + ((+)=5-10%)

SMILES: O=S1(=O)C=CC(/C=C/S(=O)(=O)Cc2ccc(Cl)cc2Cl)=C1 [Example 37, (E)-3-Thiophene-1,1-dioxoethenyl-2,4-dichlorobenzylsulfone]
- percent cell death (% Death), DU145 [1]: ++ ((++)=10-15%)
- percent cell death (% Death), BT20 [2]: ++ ((++)=10-15%)
- percent cell death (% Death), DLD-1 [3]: ++ ((++)=10-15%)
- percent cell death (% Death), H157 [4]: ++ ((++)=10-15%)

SMILES: O=S(=O)(/C=C/c1ccoc1)Cc1ccc(F)cc1 [Example 41, (E)-3-Furanethenyl-4-fluorobenzylsulfone]
- cytotoxicity [1]: 5 to 10%
- cytotoxicity [2]: 5 to 10%
- cytotoxicity [3]: 5 to 10%
- cytotoxicity [4]: 5 to 10%

SMILES: O=S(=O)(/C=C/c1ccoc1)Cc1ccc(Cl)cc1 [Example 42, (E)-3-Furanethenyl-4-chlorobenzylsulfone]
- cytotoxicity [1]: > 80%
- cytotoxicity [2]: > 80%
- cytotoxicity [3]: > 80%
- cytotoxicity [4]: > 80%

SMILES: O=S(=O)(/C=C/c1ccoc1)Cc1ccc(Br)cc1 [Example 43, (E)-3-Furanethenyl-4-bromobenzylsulfone]
- cytotoxicity [1]: > 80%
- cytotoxicity [2]: > 80%
- cytotoxicity [3]: > 80%
- cytotoxicity [4]: > 80%

SMILES: O=S(=O)(/C=C/c1ccoc1)Cc1ccc(I)cc1 [Example 44, (E)-3-Furanethenyl-4-iodobenzylsulfone]
- cytotoxicity [1]: > 80%
- cytotoxicity [2]: > 80%
- cytotoxicity [3]: > 80%
- cytotoxicity [4]: > 80%

SMILES: COc1ccc(CS(=O)(=O)/C=C/c2ccoc2)cc1 [Example 46, (E)-3-Furanethenyl-4-methoxybenzylsulfone]
- cytotoxicity [1]: > 80%
- cytotoxicity [2]: > 80%
- cytotoxicity [3]: > 80%
- cytotoxicity [4]: > 80%

SMILES: O=S(=O)(/C=C/c1ccoc1)Cc1ccc(C(F)(F)F)cc1 [Example 47, (E)-3-Furanethenyl-4-trifluoromethylbenzylsulfone]
- percent cell death (% Death), DU145 [1]: ++++ ((++++)=50-60%)
- percent cell death (% Death), BT20 [2]: ++++ ((++++)=50-60%)
- percent cell death (% Death), DLD-1 [3]: ++++ ((++++)=50-60%)
- percent cell death (% Death), H157 [4]: ++++ ((++++)=50-60%)

SMILES: O=S(=O)(/C=C/c1ccoc1)Cc1ccc(Cl)cc1Cl [Example 48, (E)-3-Furanethenyl-2,4-dichlorobenzylsulfone]
- cytotoxicity [1]: > 80%
- cytotoxicity [2]: > 80%
- cytotoxicity [3]: > 80%
- cytotoxicity [4]: > 80%

SMILES: O=S(=O)(/C=C/c1ccoc1)Cc1ccc(Cl)c(Cl)c1 [Example 49, (E)-3-Furanethenyl-3,4-dichlorobenzylsulfone]
- cytotoxicity [1]: > 80%
- cytotoxicity [2]: 50 to 60%
- cytotoxicity [3]: 50 to 60%
- cytotoxicity [4]: 50 to 60%

SMILES: N#Cc1ccc(CS(=O)(=O)/C=C/c2ccoc2)cc1 [Example 50, (E)-3-Furanethenyl-4-cyanobenzylsulfone]
- cytotoxicity [1]: 5 to 10%
- cytotoxicity [2]: 5 to 10%
- cytotoxicity [3]: 5 to 10%
- cytotoxicity [4]: 5 to 10%

SMILES: O=[N+]([O-])c1ccc(CS(=O)(=O)/C=C/c2ccoc2)cc1 [Example 51, (E)-3-Furanethenyl-4-nitrobenzylsulfone]
- cytotoxicity [1]: 5 to 10%
- cytotoxicity [2]: 5 to 10%
- cytotoxicity [3]: 5 to 10%
- cytotoxicity [4]: 5 to 10%

SMILES: O=[N+]([O-])c1cc(/C=C/S(=O)(=O)Cc2ccc(Cl)cc2)cs1 [Example 55, (E)-2-Nitro-4-thiopheneethenyl-4-chlorobenzylsulfone]
- cytotoxicity [1]: 10 to 15%
- cytotoxicity [2]: 5 to 10%
- cytotoxicity [3]: 50 to 60%
- cytotoxicity [4]: 5 to 10%

SMILES: O=[N+]([O-])c1cc(/C=C/S(=O)(=O)Cc2ccc(I)cc2)cs1 [Example 56, (E)-2-Nitro-4-thiopheneethenyl-4-iodobenzylsulfone]
- cytotoxicity [1]: 5 to 10%
- cytotoxicity [2]: 5 to 10%
- cytotoxicity [3]: 5 to 10%
- cytotoxicity [4]: 5 to 10%

SMILES: O=[N+]([O-])c1cc(/C=C/S(=O)(=O)Cc2ccc(Cl)cc2Cl)cs1 [Example 57, (E)-2-Nitro-4-thiopheneethenyl-2,4-dichlorobenzylsulfone]
- cytotoxicity [1]: 10 to 15%
- cytotoxicity [2]: 5 to 10%
- cytotoxicity [3]: 10 to 15%
- cytotoxicity [4]: 5 to 10%

SMILES: COc1ccc(CS(=O)(=O)/C=C/c2csc([N+](=O)[O-])c2)cc1 [Example 58, (E)-2-Nitro-4-thiopheneethenyl-4-methoxybenzylsulfone]
- cytotoxicity [1]: 50 to 60%
- cytotoxicity [2]: 40 to 50%
- cytotoxicity [3]: > 80%
- cytotoxicity [4]: > 80%

SMILES: O=S(=O)(/C=C/c1cccc2ccccc12)Cc1ccc(F)cc1 [Example 62, (E)-1-Naphthaleneethenyl-4-fluorobenzylsulfone]
- cytotoxicity [1]: 5 to 10%
- cytotoxicity [2]: 5 to 10%
- cytotoxicity [3]: 5 to 10%
- cytotoxicity [4]: 5 to 10%

SMILES: O=S(=O)(/C=C/c1ccc2ccccc2c1)Cc1ccc(F)cc1 [Example 63, (E)-2-Naphthaleneethenyl-4-fluorobenzylsulfone]
- cytotoxicity [1]: 5 to 10%
- cytotoxicity [2]: 5 to 10%
- cytotoxicity [3]: 5 to 10%
- cytotoxicity [4]: 5 to 10%

SMILES: O=S(=O)(/C=C/c1cccc2ccccc12)Cc1ccc(Cl)cc1 [Example 64, (E)-1-Naphthaleneethenyl-4-chlorobenzylsulfone]
- cytotoxicity [1]: 10 to 15%
- cytotoxicity [2]: 10 to 15%
- cytotoxicity [3]: 10 to 15%
- cytotoxicity [4]: 10 to 15%

SMILES: O=S(=O)(/C=C/c1ccc2ccccc2c1)Cc1ccc(Cl)cc1 [Example 65, (E)-2-Naphthaleneethenyl-4-chlorobenzylsulfone]
- cytotoxicity [1]: 5 to 10%
- cytotoxicity [2]: 5 to 10%
- cytotoxicity [3]: 5 to 10%
- cytotoxicity [4]: 5 to 10%

SMILES: O=S(=O)(/C=C/c1cccc2ccccc12)Cc1ccc(Br)cc1 [Example 66, (E)-1-Naphthaleneethenyl-4-bromobenzylsulfone]
- cytotoxicity [1]: 10 to 15%
- cytotoxicity [2]: 10 to 15%
- cytotoxicity [3]: 10 to 15%
- cytotoxicity [4]: 10 to 15%

SMILES: O=S(=O)(/C=C/c1ccc2ccccc2c1)Cc1ccc(Br)cc1 [Example 67, (E)-2-Naphthaleneethenyl-4-bromobenzylsulfone]
- cytotoxicity [1]: 5 to 10%
- cytotoxicity [2]: 5 to 10%
- cytotoxicity [3]: 5 to 10%
- cytotoxicity [4]: 5 to 10%

SMILES: O=S(=O)(/C=C/c1ccc(F)cc1)Cc1cccc2ccccc12 [Example 68, (E)-4-Fluorostyryl-1-(naphthylmethyl)sulfone]
- cytotoxicity [1]: 5 to 10%
- cytotoxicity [2]: 5 to 10%
- cytotoxicity [3]: 5 to 10%
- cytotoxicity [4]: 5 to 10%

SMILES: O=S(=O)(/C=C/c1ccc(Cl)cc1)Cc1cccc2ccccc12 [Example 69, (E)-4-Chlorostyryl-1-(naphthylmethyl)sulfone]
- cytotoxicity [1]: 5 to 10%
- cytotoxicity [2]: 5 to 10%
- cytotoxicity [3]: 5 to 10%
- cytotoxicity [4]: 5 to 10%

SMILES: O=S(=O)(/C=C/c1ccc(Br)cc1)Cc1cccc2ccccc12 [Example 70, (E)-4-Bromostyryl-1-(naphthylmethyl)sulfone]
- cytotoxicity [1]: 5 to 10%
- cytotoxicity [2]: 5 to 10%
- cytotoxicity [3]: 5 to 10%
- cytotoxicity [4]: 5 to 10%

SMILES: O=[N+]([O-])c1ccc(/C=C/S(=O)(=O)Cc2cccc3ccccc23)cc1 [Example 73, (E)-4-Nitrostyryl-1-(naphthylmethyl)sulfone]
- cytotoxicity [1]: 5 to 10%
- cytotoxicity [2]: 5 to 10%
- cytotoxicity [3]: 5 to 10%
- cytotoxicity [4]: 10 to 15%

SMILES: O=S(=O)(/C=C/c1c2ccccc2cc2ccccc12)Cc1ccc(F)cc1 [Example 74, (E)-9-Anthraceneethenyl-4-fluorobenzylsulfone]
- cytotoxicity [1]: 40 to 50%
- cytotoxicity [2]: 50 to 60%
- cytotoxicity [3]: 50 to 60%
- cytotoxicity [4]: > 80%

SMILES: O=S(=O)(/C=C/c1c2ccccc2cc2ccccc12)Cc1ccc(Br)cc1 [Example 76, (E)-9-Anthraceneethenyl-4-bromobenzylsulfone]
- cytotoxicity [1]: 50 to 60%
- cytotoxicity [2]: 50 to 60%
- cytotoxicity [3]: 40 to 50%
- cytotoxicity [4]: 40 to 50%

Reference: US6599932B1, “Alpha, beta-unsaturated sulfones for treating proliferative disorders” (Temple University-Of The Commonwealth System of Higher …, priority 2000, dated 2003)
